One experiment has as its system BJAB cells. In words: Cell viability MTS assay, BJAB. The conditions noted are these: 24 hours. It counts as cell-based, human. On the procedure:
(§1) BJAB, Jurkat and HCT116 cells (10^5 cells/well) were cultured in 100 µL of culture medium in 96-flat bottom well plates. The next day, cells were treated with the indicated concentrations of the different TRAILmin/DR5 peptides. After 24 hours of treatment cell viability measurement was performed by the MTS assay according to the manufacturer specification (Promega Corporation, Madison, WI, USA).
(Tetrazolium assays rely on reduction of a dye to a coloured formazan, in cell work by metabolically active cells.)

The test system of another experiment is HCT116 cells. The experiment can be described thus: Cell viability MTS assay, HCT116. Conditions: 24 hours. The class given is cell-based, human. The protocol:
as §1

The subject of the next experiment is Jurkat cells. The experiment can be described thus: Cell viability MTS assay, Jurkat. The class given is cell-based, human. Conditions: 24 hours. The protocol:
as §1

The next experiment concerns the target T1, human TRAIL-R2 (Homo sapiens, UniProt O14763).
T1 construct: purchased Enzo Life Sciences
In words: Surface plasmon resonance on sensor-immobilized TRAIL-R2. The class given is binding. Conditions: for koff / kon: 25° C, Langmuir model. The protocol: SPR assays were performed on a Biacore T200™, at 25° C. The running buffer was HBS-EP [10 mM HEPES (pH 7.4) containing 0.15 M NaCl, 3.4 mM EDTA and 0.005% (v/v) Tween P20]. The human TRAIL-R2 (Enzo Life Sciences, Farmingdale, NY, USA) receptor was immobilized on a sCM5 sensor chip (GE Healthcare) using the standard amine coupling procedure. The receptors were diluted in 10 mM acetate buffer (pH 5.0) at a concentration of 5 μg/mL. The TRAIL-R2 immobilization level on the sensor chip was 430 RU. Peptides were injected at a flow rate of 5 μL/min for 120 s and allowed to dissociate for an additional 420 s. Surfaces were then regenerated for 5 s with 25 mM HCl. All binding curves were double-referenced (i.e. subtraction of the data of the empty flow cell followed by the subtraction of the data from a running buffer injection cycle).
(§2) Double-referenced SPR binding curves sets were fitted globally using the BIAevaluation 4.1.1 (GE Healthcare Biacore) or TraceDrawer (Ridgeview Diagnostics AB, Uppsala, Sweden) softwares. The signal recorded with the LigandTracer on an empty spot or slide was subtracted from that recorded on cell-carrying slides. The resulting binding curves were analyzed by kinetic distribution analysis using the tool Interaction Map (Ridgeview Diagnostics AB, Uppsala, Sweden). Interaction Map decomposes the kinetic curve recorded for the binding of a homogeneous ligand to a heterogeneous group of targets into its different components. Results are represented as interaction maps (kon versus koff, log scale), where the color of each populated area represents its degree of contribution to the kinetic curve (red = high contribution, blue = low contribution).

In experiment [1] the target is T2, TRAIL-R2 expressed on HCT116 cells (Homo sapiens, UniProt O14763).
T2 construct: we used BJAB, HCT116 and Jurkat that express a natural level of TRAIL-R2 receptors; endogenous in cells; host or cells: HCT116
T2 sequence (O14763 56-440): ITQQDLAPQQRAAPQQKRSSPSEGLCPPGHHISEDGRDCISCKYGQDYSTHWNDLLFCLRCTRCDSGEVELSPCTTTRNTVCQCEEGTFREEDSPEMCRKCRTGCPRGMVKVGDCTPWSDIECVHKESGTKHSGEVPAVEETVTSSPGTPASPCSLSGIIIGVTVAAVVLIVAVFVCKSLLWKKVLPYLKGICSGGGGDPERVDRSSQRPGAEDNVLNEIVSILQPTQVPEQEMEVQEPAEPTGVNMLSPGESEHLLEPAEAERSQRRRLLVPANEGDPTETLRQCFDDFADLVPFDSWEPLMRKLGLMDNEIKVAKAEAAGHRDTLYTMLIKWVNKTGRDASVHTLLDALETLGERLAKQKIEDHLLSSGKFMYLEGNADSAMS
In words: LigandTracer real time binding on living HCT116 cells. Conditions: HCT116 cells expressing TRAIL-R2. On the procedure:
The adherent cells HCT116-TRAIL-R2-DEF and HCT116 cells were directly plated on glass slides (Ø20 mm) (10^6 cells/well). The cells in suspension (BJAB and BJAB-TRAIL-R2-DEF) were covalently adhered to glass slides coated with poly-L-lysine (0.1% v/v) (Sigma Aldrich, Saint Louis, MO, USA). The adhesion was strong enough for measurement during 10h. After 24 hours, the slides were fixed with superglue at different locations of a Petri dish, which was inserted in the LigandTracer Green instrument (Ridgeview Instrument AB, Uppsala, Sweden). An empty spot or empty glass slide fixed to the Petri dish was used to record the background signal. This set-up allowed the simultaneous monitoring of the binding of a given peptide to different cell-carrying glass slides fixed to the dish. […] The fluorescence signal is recorded over time when the slide is out of the solution, and therefore corresponds to the amount of bound peptide. […]
Double-referenced SPR binding curves sets were fitted globally using the BIAevaluation 4.1.1 (GE Healthcare Biacore) or TraceDrawer (Ridgeview Diagnostics AB, Uppsala, Sweden) softwares. The signal recorded with the LigandTracer on an empty spot or slide was subtracted from that recorded on cell-carrying slides. The resulting binding curves were analyzed by kinetic distribution analysis using the tool Interaction Map (Ridgeview Diagnostics AB, Uppsala, Sweden). […]

Experiment [2] addresses T3, TRAIL-R2 expressed on Jurkat cells (Homo sapiens, UniProt O14763).
T3 construct: we used BJAB, HCT116 and Jurkat that express a natural level of TRAIL-R2 receptors; endogenous in cells; host or cells: Jurkat
In words: LigandTracer real time binding on living Jurkat cells.

The target in another experiment is T4, TRAIL-R2 on BJAB cells (Homo sapiens, UniProt O14763).
T4 construct: expressed in transfected cells
T4 sequence (O14763 56-440): as above
The experiment can be described thus: Flow cytometry staining with fluorescent peptides, BJAB. It counts as binding. The protocol: (§3) 10^6 cells were washed in PBS containing 2% FCS and then incubated at 4° C for 30 min with an anti-TRAIL-R2 antibody (clone BK9 Diaclone, Besançon, France) according to concentration recommended by the manufacturer or with fluorescent peptides at the concentration of 1 µM. After two washes in PBS-2% FBS, TRAIL-R2 expression was monitored by flow cytometry (Guava easyCyte™, Merck Milipore, Darmstadt, Germany) and data were analyzed with InCyte Software (Merck Milipore).

Another experiment addresses T5, TRAIL-R2 on HCT116 cells (Homo sapiens, UniProt O14763).
T5 construct: we used BJAB, HCT116 and Jurkat that express a natural level of TRAIL-R2 receptors; endogenous in cells; host or cells: HCT116
In words: Flow cytometry staining with fluorescent peptides, HCT116. It counts as binding. The protocol:
as §3

The target in experiment [3] is TRAIL-R2 expressed on BJAB cells (Homo sapiens, UniProt O14763). In words: LigandTracer real time binding on living BJAB cells. Set-up: expressed in transfected cells. On the procedure:
The adherent cells HCT116-TRAIL-R2-DEF and HCT116 cells were directly plated on glass slides (Ø20 mm) (10^6 cells/well). The cells in suspension (BJAB and BJAB-TRAIL-R2-DEF) were covalently adhered to glass slides coated with poly-L-lysine (0.1% v/v) (Sigma Aldrich, Saint Louis, MO, USA). The adhesion was strong enough for measurement during 10h. After 24 hours, the slides were fixed with superglue at different locations of a Petri dish, which was inserted in the LigandTracer Green instrument (Ridgeview Instrument AB, Uppsala, Sweden). An empty spot or empty glass slide fixed to the Petri dish was used to record the background signal. This set-up allowed the simultaneous monitoring of the binding of a given peptide to different cell-carrying glass slides fixed to the dish. Three mL of solution (culture medium without or with fluorescent peptide) were added to the dish. In the LigandTracer instrument, the dish is tilted and rotates. Consequently the 3 mL solution covers only the lower part of the dish and each cell-carrying slide is alternatively in contact and out of contact with the solution (at intervals of 8 to 16 s). The fluorescence signal is recorded over time when the slide is out of the solution, and therefore corresponds to the amount of bound peptide. The solution in the dish was initially the culture medium (∼30 min) to provide a stable base line. The fluorescent peptide was then added in increasing doses (10, 30 and 90 nM) every two to three hours. Finally the peptide-containing sample was replaced with fresh medium and the dissociation of the peptide from the cells was followed overnight. The measurements were conducted at room temperature (approximately 20° C).
as §2

*1 amine or outer side, *2 acyl side, *3 side chain or, on linkers, in order; H or OH if unused. Where a SMILES comes first, the peptide text is derived from it. Bridges are numbered along the chain shown (N, C = ends). Roman numbers before positions name the chains, in order. X1 = CN(CCCC(=O)NC(CCC(=O)[*:1])CCC(=O)[*:2])C(=O)c1ccccc1-c1c2ccc(=N)c(S(=O)(=O)O)c-2oc2c(S(=O)(=O)O)c(N)ccc12; X2 = NC(CCC(=O)[*:1])CCC(=O)[*:2]

TRAIL-R2 expressed on BJAB cells, sequence (O14763 56-440): as above
T1 sequence (O14763 56-440): as above
T5 sequence (O14763 56-440): as above
T3 sequence (O14763 56-440): as above

As to `CC[C@H](C)[C@@H]1NC(=O)[C@H](CCCNC(=N)N)NC(=O)[C@H](CC(N)=O)NC(=O)[C@H](CC(=O)O)NC(=O)[C@H](CC(C)C)NC(=O)[C@@H](NC(=O)[C@H](CC(=O)O)NC(=O)[C@H](Cc2c[nH]c3ccccc23)NC(C)=O)CSSC[C@@H](C(=O)N[C@H](C(=O)N[C@@H](CCCNC(=N)N)C(=O)N[C@@H](CC(C)C)C(N)=O)C(C)C)NC(=O)[C@H](CCC(N)=O)NC(=O)[C@H](CCCNC(=N)N)NC(=O)[C@H](CCCCNC(=O)CCC(N)CCC(=O)NCCCC[C@@H]2NC(=O)CNC(=O)[C@H]([C@@H](C)CC)NC(=O)[C@H](CCCNC(=N)N)NC(=O)[C@H](CC(N)=O)NC(=O)[C@H](CC(=O)O)NC(=O)[C@H](CC(C)C)NC(=O)[C@@H](NC(=O)[C@H](CC(=O)O)NC(=O)[C@H](Cc3c[nH]c4ccccc34)NC(C)=O)CSSC[C@@H](C(=O)N[C@H](C(=O)N[C@@H](CCCNC(=N)N)C(=O)N[C@@H](CC(C)C)C(N)=O)C(C)C)NC(=O)[C@H](CCC(N)=O)NC(=O)[C@H](CCCNC(=N)N)NC2=O)NC(=O)CNC1=O` (stereo partly drawn) [2d] (I: Ac-WDCLDNRIGKRQCVRL-NH2 / II: Ac-WDCLDNRIGKRQCVRL-NH2; disulfide I:3-I:13, II:3-II:13; linker I:10-II:10 via X2; N-terminus and C-terminus assumed), the “apoptosis induction in BJAB cells” value with BJAB cells is “underwent apoptosis”. In the experiment on HCT116 cells, the “apoptosis induction in HCT116 cells” value is “strong resistance”. The “apoptosis induction in Jurkat cells” value with Jurkat cells is “strong resistance”. The koff (usually the first-order rate constant of dissociation) at human TRAIL-R2 (SPR) amounted to 0.00018 s⁻¹. Moreover, the kon (as a rule, the rate constant with which the complex forms) at human TRAIL-R2 (SPR) stood at 1.5e+06 M⁻¹ s⁻¹. At human TRAIL-R2 (SPR, ratio of KD 1d to 2d), the “KD of 2d smaller than KD of 1d” value is “approximately 400 fold”. The Rmax on human TRAIL-R2 (TRAIL-R2 surface 1, one:one interaction model) was 33; on human TRAIL-R2 (TRAIL-R2 surface 2, one:one interaction model) it was 12.
Take `CC[C@H](C)[C@@H]1NC(=O)[C@H](CCCNC(=N)N)NC(=O)[C@H](CC(N)=O)NC(=O)[C@H](CC(=O)O)NC(=O)[C@H](CC(C)C)NC(=O)[C@@H](NC(=O)[C@H](CC(=O)O)NC(=O)[C@H](Cc2c[nH]c3ccccc23)NC(C)=O)CSSC[C@@H](C(=O)N[C@H](C(=O)N[C@@H](CCCNC(=N)N)C(=O)N[C@@H](CC(C)C)C(N)=O)C(C)C)NC(=O)[C@H](CCC(N)=O)NC(=O)[C@H](CCCNC(=N)N)NC(=O)[C@H](CCCCNC(=O)CCC(CCC(=O)NCCCC[C@@H]2NC(=O)CNC(=O)[C@H]([C@@H](C)CC)NC(=O)[C@H](CCCNC(=N)N)NC(=O)[C@H](CC(N)=O)NC(=O)[C@H](CC(=O)O)NC(=O)[C@H](CC(C)C)NC(=O)[C@@H](NC(=O)[C@H](CC(=O)O)NC(=O)[C@H](Cc3c[nH]c4ccccc34)NC(C)=O)CSSC[C@@H](C(=O)N[C@H](C(=O)N[C@@H](CCCNC(=N)N)C(=O)N[C@@H](CC(C)C)C(N)=O)C(C)C)NC(=O)[C@H](CCC(N)=O)NC(=O)[C@H](CCCNC(=N)N)NC2=O)NC(=O)CCCN(C)C(=O)c2ccccc2-c2c3ccc(=N)c(S(=O)(=O)O)c-3oc3c(S(=O)(=O)O)c(N)ccc23)NC(=O)CNC1=O` (stereo partly drawn) [f2d] (I: Ac-WDCLDNRIGKRQCVRL-NH2 / II: Ac-WDCLDNRIGKRQCVRL-NH2; disulfide I:3-I:13, II:3-II:13; linker I:10-II:10 via X1; N-terminus and C-terminus assumed): the “apoptosis induction in BJAB cells” value in the experiment with BJAB cells is reported as “induced apoptosis”. The “apoptosis induction in HCT116 cells” value in the experiment with HCT116 cells is recorded as “scarcely induced their apoptosis”. The molecule further gave a koff at human TRAIL-R2 (SPR) of 0.00026 s⁻¹. Besides, the kon at human TRAIL-R2 (SPR) is 150000 M⁻¹ s⁻¹. The cell surface binding entry in experiment [1] is reported as “bound weakly”; in experiment [2] it was “weak binding signal, if any”; in [3] (BJAB cells deficient for TRAIL-R2), “weak signals”; in experiment [3] (BJAB cells expressing TRAIL-R2), “strong binding”. The “binding by flow cytometry” value was “not” at TRAIL-R2 on BJAB cells (BJAB cells deficient for TRAIL-R2, peptide 1 µM); “bound” at TRAIL-R2 on BJAB cells (BJAB cells expressing TRAIL-R2, peptide 1 µM); “not” at TRAIL-R2 on HCT116 cells (HCT116 cells deficient for TRAIL-R2, peptide 1 µM); “bound” at TRAIL-R2 on HCT116 cells (HCT116 cells expressing TRAIL-R2, peptide 1 µM). This molecule also returned a fluorescent signal reached in experiment [3] (BJAB cells that expressed TRAIL-R2, 10, 30 and (f1d) 90 nM) of more than 25.

Values taken from paper PMC5884648, “Relationship between the agonist activity of synthetic ligands of TRAIL-R2 and their cell surface binding modes” (Oncotarget, 2018).
